Laboratory results published in patent US11647993B2, “Oral fluid collector” (Research Triangle Institute, priority 2017, dated 2023).
Where two headings read alike, the source gives them in different places.

Key:
[1] = Stability of BZE in matrices over pH; format: physicochemical; conditions: most matrices, broad range of pH values
From the text: Based on the above discussion, the stabilization of parent cocaine in a matrix such as oral fluid, which contains esterases possibly derived from crevicular fluid, is challenging unless appropriate buffering at a pH where parent cocaine is stable is employed.

[2] = tetrahydrate soluble in hot water; cited from earlier work
[3] = Stability of parent THC spiked into neat human oral fluid, with or without the reagent component; format: physicochemical
[4] = oral fluid, over 14 days, cited from earlier work
pH of greatest stability = conditions: parent THC by itself
[5] = two collection devices, cited from earlier work
[6] = aqueous solution (cocaine); labile esters (heroin, 6-AM); cited from earlier work

In the case of `CN1[C@H]2CC[C@@H]1[C@@H](C(=O)O)[C@@H](OC(=O)c1ccccc1)C2` [BZE, benzoylecgonine], the stability [1] is listed as “stable” and the “water solubility” value [2] is listed as “considerable water solubility”.
In the case of `CCCCCc1cc(O)c2c(c1)OC(C)(C)[C@@H]1CCC(C)=C[C@@H]21` [THC, Δ^9-tetrahydrocannabinol], the “loss of THC” value [3] is given as “substantial loss”, the “losses of THC” value ([4]; in the dark at room temperature) is given as 20% and the “losses of THC” value ([4]; under fluorescent lights) is given as “greater than 50%”. For the same compound, the “pH at which most stable” value (pH of greatest stability) was roughly 7.5.
For `COC(=O)[C@H]1[C@@H](OC(=O)c2ccccc2)C[C@@H]2CC[C@H]1N2C` [cocaine], the “cocaine degraded to BZE” value ([5]; within 48 hours) is given as 26%, the “cocaine degraded to BZE” value ([5]; within 72 hours) is given as 41% and the “pH of greatest stability / stabilization” value [6] is given as roughly 5.
In the case of `CC(=O)Oc1ccc2c3c1O[C@H]1[C@@H](OC(C)=O)C=C[C@H]4[C@@H](C2)N(C)CC[C@@]341` [heroin, diacetylmorphine], the “pH of greatest stability / stabilization” value [6] is listed as roughly 5.0.
